Experimental data published in publication PMC6108835, “Target-Based Discovery of an Inhibitor of the Regulatory Phosphatase PPP1R15B” (Cell, 2018).
pKd: −log10 of the molar value.

How the values were obtained:
[1] = target: T1, R15A-PP1c holophosphatase (R15A^325-636-PP1c) (Homo sapiens, UniProt O75807); experiment: Holophosphatase SPR, compounds binding to reconstituted R15A-PP1c; details: holophosphatase reconstituted on SA chip; 20°C; mean ± SD; read-out: KD, steady-state affinity for R15A-PP1c
T1 construct: cDNAs encoding amino acids 325-636 of R15A and 340-698 of R15B were cloned into pMAL-c5x; made in house; host or cells: R15A: E. coli BL21-Gold (DE3) pLysS; bio-PP1c: Sf9 insect cells (baculovirus)
T1 sequence (O75807 325-636, stated change not applied): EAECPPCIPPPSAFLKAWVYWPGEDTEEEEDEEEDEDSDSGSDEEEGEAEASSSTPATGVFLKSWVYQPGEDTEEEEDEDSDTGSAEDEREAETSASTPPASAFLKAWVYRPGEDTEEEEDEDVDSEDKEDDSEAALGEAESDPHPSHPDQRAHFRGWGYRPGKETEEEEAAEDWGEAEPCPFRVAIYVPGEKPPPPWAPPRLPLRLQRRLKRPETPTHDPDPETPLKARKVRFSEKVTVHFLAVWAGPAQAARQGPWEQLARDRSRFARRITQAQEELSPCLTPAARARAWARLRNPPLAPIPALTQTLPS
T1 sequence (P36873 1-322 partner): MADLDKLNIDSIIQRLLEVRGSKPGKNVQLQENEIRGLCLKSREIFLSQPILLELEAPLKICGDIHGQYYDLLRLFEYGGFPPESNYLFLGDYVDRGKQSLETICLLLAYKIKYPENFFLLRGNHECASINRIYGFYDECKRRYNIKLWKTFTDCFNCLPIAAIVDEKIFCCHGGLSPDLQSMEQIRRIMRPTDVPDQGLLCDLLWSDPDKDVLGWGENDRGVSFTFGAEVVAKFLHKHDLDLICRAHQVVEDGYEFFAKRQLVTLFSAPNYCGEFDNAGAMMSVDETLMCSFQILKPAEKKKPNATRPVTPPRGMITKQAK
Method: Small molecules were stored as 50 mM stock solutions in 100% DMSO. […] If necessary the concentration range was adjusted to accurately determine the KD depending on the initial results. […] This was followed by 1 min stabilization period, to wash off any unspecific binding. […] After each dilution series, the surface was regenerated using 3 M NaCl for 90 s. […] In order to be able to correct for small variations in DMSO concentration between samples, eight solvent samples ranging from 0.06 to 8% DMSO were injected every 50th cycle. The flow cell temperature was 20°C.

wild-type mice = experiment: Morris water maze; type: in vivo, mouse; details: 2 mg/kg for 2 weeks
Method: Morris water maze and the following fear conditioning were performed on C57BL/6J wild-type males aged 2.5 months. Mice were treatment- and test-naive before the treatment started. Treatment with Raphin1 started two weeks before and was continued during the behavioral tests.
The water maze consisted of a white circular tank (1.50 m diameter) filled with opaque water adjusted to 21 ± 1°C. For the hidden platform task, the escape platform (10 cm diameter) was positioned 1 cm below water surface in the center of one of the pool quadrants. The walls surrounding the water maze were hung with posters and flags, which served as visual cues and were visible during all stages of 5 trainings and testing. Movement of the mice within the pool was tracked and analyzed with a computerized tracking system (ViewPoint, France). During training mice were required to locate a submerged hidden platform by using only extra-maze cues. Each mouse received five blocks of training trials over five consecutive days. […] Spatial learning performance was assessed during a probe trial 1 hr after the last session of training, and for which the target platform was removed from the pool. To evaluate the performance during training trials the latency and distance traveled to find the hidden platform were measured. […]

HD^82Q mice = experiment: Treatment of HD^82Q (N171-82Q) mice, model of Huntington's disease; type: in vivo, mouse
Method: To produce an experimental group, HD^82Q transgenic males were crossed with C3H/B6 F1 wild-type females. 4 weeks old treatment- and test-naive transgenic mice and their wild-type littermate controls were randomized in different groups and treated with Raphin1 for the indicated time. Only males HD^82Q were used. Mice weight was collected weekly or bi-weekly.
Mice were culled by cervical dislocation, a part of cortex was extracted, fresh-frozen in liquid nitrogen and kept at −80°C until use. Tissue was homogenized and lysed in Laemmli Buffer (1 mL for 0.5 mg tissue). Lysates were boiled at 95°C for 5 min, sonicated and resolved on Bolt SDS-PAGE 4%–12% Bis-Tris gels (ThermoFisher Scientific). Proteins were transferred to the nitrocellulose membrane (Bio-Rad). Membrane was blocked in 5% skimmed milk for 30 min and then probed with primary antibodies followed by incubation with the appropriate horseradish peroxidase-conjugated secondary antibodies (Promega). Proteins were visualized using ECL Prime (GE Healthcare) and imaged in the Chemi-Smart 5000 (Vilber-Lourmat, France). SDS-resistant huntingtin assemblies were quantified using ImageJ (NIH, USA). The huntingtin assemblies were analyzed using the huntingtin 2B4 antibody (Euromedex (#HU-2B4), 1:1,000).
Mice were culled by cervical dislocation, a brain was fresh frozen in the O.C.T. compound (VWR International) and sectioned (14 μm) using Cryostat (Leica CM3050 S). […]
For quantification, motor cortex was imaged using a Nikon TiE automated fluorescence microscope under the control of NIS Elements software (Nikon UK). Images were taken using a 40X 0.95 NA lens, fluorescence filter sets matched to Hoechst 33342 and Alexa 488 and an Andor Neo sCMOS camera. […] Images were analyzed using the ‘general analysis’ tool in NIS Elements. […] The total number of nuclei per field and the total number of inclusions inside nuclei per field were counted in each filed. […] To check for systematic bias in our analysis due to variations in sample processing we also measured the average fluorescence intensity across the whole field. […]

R15A = R15A (Homo sapiens, UniProt O75807); experiment: Limited trypsin digestion of R15A; set-up: cDNAs encoding amino acids 325-636 of R15A and 340-698 of R15B were cloned into pMAL-c5x; made in house; host or cells: E. coli BL21-Gold (DE3) pLysS; details: R15 3 μM, compound 100 μM, trypsin 5 nM, 5 min, 22°C
Chain of R15A (O75807 325-636, stated change not applied): as the sequence (O75807 325-636, stated change not applied) above
Method: Reactions were initiated by addition of 5 nM of trypsin from bovine pancreas (Sigma-Aldrich), made up in PBS, and allowed to proceed for 5 min at 22°C, with shaking at 350 rpm. […] Proteins were visualized by staining with InstantBlue Protein Stain (Expedeon).

[2] = HD^82Q mice, 2 mg/kg daily from 4 weeks of age, 2-month-old

`[H]/N=C(\N)NN=Cc1cccc(Cl)c1Cl` [Raphin1, (E)-2-(2,3-dichlorobenzylidene)hydrazine-1-carboximidamide] was tested, and the pKd [1] was 6.01, the “Adverse effects on memory, Morris water maze” value (wild-type mice) was “no adverse effects” and the “Weight of HD^82Q mice” value (HD^82Q mice; 2 mg/kg once a day by oral gavage from 4 to ∼10 weeks of age) was “improved”. The “Nuclear huntingtin inclusions in the cortex” value (HD^82Q mice; [2]) was “decreased”, the “SDS-insoluble huntingtin assemblies in cortex” value (HD^82Q mice; [2]) was “decreased” and the “Protease sensitivity of R15A (limited proteolysis, conformational change)” value (R15A) was “no effect”.
